From patent US20080227770A1, “Benzoxazepine Compound” (Takeda Pharmaceutical Company Limited, priority 2003, published 2008)

- melting point: 219 to 222 °C (dec.)
SMILES: COc1cccc([C@H]2O[C@H](Cc3ncc(CC(=O)O)s3)C(=O)N(CC(C)(C)CO)c3ccc(Cl)cc32)c1OC [Example 1, (2-{[(3R,5S)-7-chloro-5-(2,3-dimethoxyphenyl)-1-(3-hydroxy-2,2-dimethylpropyl)-2-oxo-1,2,3,5-tetrahydro-4,1-benzoxazepin-3-yl]methyl}-1,3-thiazol-5-yl)acetic acid]
